Structures are written as SMILES. Several values for one entry are separate records, joined by “and”; a condition that tells them apart may be missing. Equal values may be shown once. Toxic doses and inconclusive results are not listed.

The assay concerns CD2F1 mice, L1210 leukemia ip, survival T/C. In words: NCI In Vivo Anticancer Drug Screen. Data for tumor model L1210 Leukemia (intraperitoneal) in CD2F1 (CDF1) mice. As to conditions: endpoint: mean survival time, higher = longer survival. In short, it runs like this: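 In this screen, transplantable tumors were grown in mice given either the compound or its vehicle. Results were expressed as the treated measurement relative to the control measurement.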

[1] abbreviates: dose: 100.0 mg/kg/injection, schedule: Q01DX009 (ip), vehicle: saline with Tween-80.
[2] abbreviates: dose: 100.0 mg/kg/injection, schedule: Q04DX003 (ip), vehicle: saline with Tween-80.
[3] abbreviates: dose: 200.0 mg/kg/injection, schedule: Q01DX009 (ip), vehicle: saline with Tween-80.
Where [4] appears, read: dose: 200.0 mg/kg/injection, schedule: Q04DX003 (ip), vehicle: saline with Tween-80.
The mark [5] stands for this setting: dose: 400.0 mg/kg/injection, schedule: Q04DX003 (ip), vehicle: saline with Tween-80.
The mark [6] stands for this setting: dose: 100.0 mg/kg/injection, schedule: Q04DX003 (ip), vehicle: saline.
Setting [7] is: dose: 200.0 mg/kg/injection, schedule: Q04DX003 (ip), vehicle: saline.
Where [8] appears, read: dose: 400.0 mg/kg/injection, schedule: Q04DX003 (ip), vehicle: saline.
The mark [9] stands for this setting: dose: 100.0 mg/kg/injection, schedule: Q01DX009 (ip), vehicle: saline.
The mark [10] stands for this setting: dose: 200.0 mg/kg/injection, schedule: Q01DX009 (ip), vehicle: saline.
[11] abbreviates: dose: 400.0 mg/kg/injection, schedule: Q01DX009 (ip), vehicle: saline.
[12] abbreviates: dose: 50.0 mg/kg/injection, schedule: Q01DX009 (ip), vehicle: saline with Tween-80.

In the case of `NNC(=O)CC(O)(C1CC1)C1CC1`, the T/C (dose: 100.0 mg/kg/injection, schedule: Q04DX002 (ip), vehicle: saline) was 112 % of control; the T/C (dose: 200.0 mg/kg/injection, schedule: Q04DX002 (ip), vehicle: saline) is 96 % of control; the T/C (dose: 400.0 mg/kg/injection, schedule: Q04DX002 (ip), vehicle: saline) was 100 % of control.

Regarding `CC1(C)C=CC=C(C(=O)O)C=C1`, the T/C is 100 % of control under setting [1]; 98 % of control under setting [2]; 92 % of control under setting [3]; 98 % of control under setting [4]; 89 % of control (dose: 400.0 mg/kg/injection, schedule: Q01DX009 (ip), vehicle: saline with Tween-80); 94 % of control under setting [5].

In the case of `COC(=O)C(=O)Cc1cc(OC)cc(=O)o1`, the T/C was 100 % of control under setting [2], 101 % of control under setting [4] and 95 % of control under setting [5].

For `c1cc2c(cc1CNC1=NCCO1)OCO2`, the T/C runs as follows: under setting [2], 98 % of control; under setting [4], 105 % of control; under setting [5], 98 % of control.

For the molecule `CCCCCCCCCCCCSCCC(=O)O`, the T/C runs as follows: under setting [6], 98 % of control; under setting [7], 98 % of control; under setting [8], 97 % of control.

Regarding `CC(C)c1cc(O)c(C(C)C)cc1O`, the T/C runs as follows: (dose: 75.0 mg/kg/injection, schedule: Q01DX001 (ip), vehicle: saline) 104 % of control; (dose: 150.0 mg/kg/injection, schedule: Q01DX001 (ip), vehicle: saline) 111 % of control.

As to `CCOC(=O)N1C2CCC(C2)N1C(=O)OCC`, the T/C by setting is: under setting [2], 100 % of control; under setting [4], 100 % of control; under setting [5], 87 % of control.

On to `O=C1C(CO)(CO)CCC1(CO)CO`, for which the T/C is, setting by setting: under setting [9], 91 % of control; under setting [10], 93 % of control; under setting [11], 98 % of control.

`N#Cc1c2ccccc2nn1C1OC(CO)C(O)C1O` (stereo unspecified): the T/C runs as follows: (dose: 100.0 mg/kg/injection, schedule: Q01DX005 (ip), vehicle: saline) 109 % of control; (dose: 200.0 mg/kg/injection, schedule: Q01DX005 (ip), vehicle: saline) 98 % of control.

As for `O=P(O)(O)OCCCl`, the T/C is 94 % of control under setting [9]; 100 % of control under setting [6]; 96 % of control under setting [10]; 94 % of control under setting [7]; 94 % of control under setting [11]; 94 % of control under setting [8].

For `COc1ccc(-c2nc3c(N)nc(N)nc3nc2N)cc1OC`, the T/C is, setting by setting: (dose: 12.5 mg/kg/injection, schedule: Q01DX009 (ip), vehicle: water) 105 % of control; (dose: 25.0 mg/kg/injection, schedule: Q01DX009 (ip), vehicle: water) 103 % of control; (dose: 50.0 mg/kg/injection, schedule: Q01DX009 (ip), vehicle: water) 103 % of control; (dose: 100.0 mg/kg/injection, schedule: Q01DX009 (ip), vehicle: water) 98 % of control; (dose: 200.0 mg/kg/injection, schedule: Q01DX009 (ip), vehicle: water) 88 % of control.

For `O=P(NCCCl)(NCCCl)Oc1ccccc1`, the T/C reads like this: (dose: 62.5 mg/kg/injection, schedule: Q01DX001 (ip), vehicle: water) 103 % of control; (dose: 125.0 mg/kg/injection, schedule: Q01DX001 (ip), vehicle: water) 97 % of control; (dose: 250.0 mg/kg/injection, schedule: Q01DX001 (ip), vehicle: water) 98 % of control; (dose: 500.0 mg/kg/injection, schedule: Q01DX001 (ip), vehicle: water) 98 % of control.

On to `O=[N+]([O-])c1cc(CCl)ccc1CCl`, for which the T/C (dose: 75.0 mg/kg/injection, schedule: Q01DX001 (ip), vehicle: other) was 96 % of control and the T/C (dose: 150.0 mg/kg/injection, schedule: Q01DX001 (ip), vehicle: other) was 96 % of control.

`O=C(O)c1ccc(Cl)cc1Nc1ccc(Cl)cc1`: the T/C (dose: 12.5 mg/kg/injection, schedule: Q04DX003 (ip), vehicle: saline with Tween-80) is 97 % of control; the T/C (dose: 25.0 mg/kg/injection, schedule: Q04DX003 (ip), vehicle: saline with Tween-80) is 100 % of control; the T/C (dose: 50.0 mg/kg/injection, schedule: Q04DX003 (ip), vehicle: saline with Tween-80) was 107 % of control; the T/C under setting [2] is 98 % of control.

As to `[N-]=[N+]=NCC(=O)N1c2ccccc2Sc2ccccc21`, the T/C (dose: 12.5 mg/kg/injection, schedule: Q01DX009 (ip), vehicle: other) is 95 % of control; the T/C (dose: 25.0 mg/kg/injection, schedule: Q01DX009 (ip), vehicle: other) is 103 % of control; the T/C (dose: 50.0 mg/kg/injection, schedule: Q01DX009 (ip), vehicle: other) is 98 % of control; the T/C (dose: 100.0 mg/kg/injection, schedule: Q01DX009 (ip), vehicle: other) was 101 % of control; the T/C (dose: 200.0 mg/kg/injection, schedule: Q01DX009 (ip), vehicle: other) was 95 % of control.

On to `N=[N+]=CC(=O)OCC(N)C(=O)O` (stereo unspecified), for which the T/C reads like this: (dose: 1.0 mg/kg/injection, schedule: Q03HX016 (ip), vehicle: saline) 168 % of control; (dose: 2.0 mg/kg/injection, schedule: Q03HX016 (ip), vehicle: saline) 168 % of control; (dose: 2.0 mg/kg/injection, schedule: Q03HX024 (ip), vehicle: saline) 153 % of control and 163 % of control; (dose: 4.0 mg/kg/injection, schedule: Q03HX016 (ip), vehicle: saline) 182 % of control; (dose: 4.0 mg/kg/injection, schedule: Q03HX024 (ip), vehicle: saline) 171 % of control and 174 % of control; (dose: 8.0 mg/kg/injection, schedule: Q03HX016 (ip), vehicle: saline) 115 % of control. The T/C is 113 % of control and 115 % of control (dose: 8.0 mg/kg/injection, schedule: Q03HX024 (ip), vehicle: saline); 167 % of control (dose: 12.5 mg/kg/injection, schedule: Q01DX009 (ip), vehicle: saline); 122 % of control (dose: 25.0 mg/kg/injection, schedule: Q01DX007 (ip), vehicle: saline); 100 % of control (dose: 25.0 mg/kg/injection, schedule: Q01DX009 (ip), vehicle: saline); 96 % of control (dose: 50.0 mg/kg/injection, schedule: Q01DX007 (ip), vehicle: saline); 151 % of control (dose: 50.0 mg/kg/injection, schedule: Q03DX003 (ip), vehicle: saline).

In the case of `O=C1CCC(=O)N1O`, the T/C reads like this: (dose: 100.0 mg/kg/injection, schedule: Q01DX001 (ip), vehicle: saline) 104 % of control; under setting [6], 100 % of control; (dose: 200.0 mg/kg/injection, schedule: Q01DX001 (ip), vehicle: saline) 103 % of control; under setting [7], 102 % of control; (dose: 400.0 mg/kg/injection, schedule: Q01DX001 (ip), vehicle: saline) 103 % of control; under setting [8], 98 % of control.

As for `COc1cc(Cl)ccc1NC(=O)OCCOc1cccc(C)c1`, the T/C under setting [12] is 93 % of control, the T/C under setting [1] is 101 % of control and the T/C under setting [3] was 93 % of control.

Regarding `CCCCC/C=C/C/C=C\CCCCCCCC1=C(O)C(=O)C(OC)=C(OC)C1=O`, the T/C runs as follows: (dose: 6.25 mg/kg/injection, schedule: Q01DX009 (ip), vehicle: saline with Tween-80) 120 % of control; (dose: 12.5 mg/kg/injection, schedule: Q01DX009 (ip), vehicle: saline with Tween-80) 106 % of control; (dose: 25.0 mg/kg/injection, schedule: Q01DX009 (ip), vehicle: saline with Tween-80) 98 % of control; under setting [12], 102 % of control; under setting [1], 102 % of control; under setting [3], 106 % of control.
